Like-named read-outs stand apart in the source and are kept apart here. Positions of bridges follow the written chain, without caps; N, C: chain ends. Chains are numbered I, II in the order given. No end group written: not given here.
Key:
[1] = system: various fungi; conditions: 20 h
[2] = system: gram-positive bacteria and gram-negative bacteria, including aerobic and anaerobic bacteria and yeast; test: Antimicrobial spectrum, MIC in liquid medium (Experiment 12), overall; type: cell-based; conditions: many types of gram-positive and gram-negative bacteria and yeast; peptone or PYG medium
Description: The various microorganisms shown in Table 3 and in Table 4 were incubated for 16 to 20 hours in 2 ml of peptone medium which consisted of 1% Bactopeptone (manufactured by Difco Laboratory Co.), or in 2 ml of PYG medium which consisted of 1% Bactopeptone (manufactured by Difco Laboratory Co.), 1% glucose and 0.05% yeast extract. The antimicrobial peptide was added to each medium at various ratios of 0 μg/ml to 60 μg/ml. Standard bacterial strains of various microorganisms in the logarithmic phase were inoculated into the various media at a cell concentration of 10^6 /ml and incubated at 37° C., with the exception of the bacterial strains mentioned in the footnotes of the tables. The growth of the various microorganisms was studied by measuring the light absorption at 660 nm.

[3] = system: Escherichia coli; type: cell-based; conditions: 16 h
Description: Bactocasitone (manufactured by Difco Laboratory Co.) was dissolved at a concentration of 1% in purified water, the pH was adjusted to 7.0 with 1M sodium hydroxide, the solution was sterilized at 115° C. for 15 minutes and a basal medium (liquid medium) was prepared. Each sample was dissolved at a concentration of […] in purified water, sterilization was performed by using a sterilization filter (manufactured by […] Co.) and test media, prepared by adding samples at concentrations of 1, 5, 10, 50 and 100 ppm to the basal medium, as well as a control medium with no added samples, were prepared. […] wherein A is the difference in turbidity of the test culture medium (the difference between the turbidity of the test culture medium after 16 hours of culture and the turbidity of the test culture medium before the culturing) and B is the turbidity of the control medium (the difference between the turbidity of the control culture medium after 16 hours of culture and the turbidity of the control culture medium before the culturing). The percentages of the rate of inhibition of proliferation are not in weight (same hereinafter).

Row | Compound | concentration showing antimicrobial activity (MIC, summary of Table 7) [1] | concentration showing antimicrobial activity (MIC, summary of Tables 3 and 4) [2] | inhibitory rate (rate of inhibition of E. coli proliferation) ([3]; 1 ppm) | inhibitory rate (rate of inhibition of E. coli proliferation) ([3]; 5 ppm) | inhibitory rate (rate of inhibition of E. coli proliferation) ([3]; 10 ppm) | inhibitory rate (rate of inhibition of E. coli proliferation) ([3]; 50 ppm) | inhibitory rate (rate of inhibition of E. coli proliferation) ([3]; 100 ppm)
1 | CC[C@H](C)[C@@H]1NC(=O)[C@H](CO)NC(=O)[C@@H]2CCCN2C(=O)[C@H](C)NC(=O)CNC(=O)[C@H](CC(C)C)NC(=O)[C@H](CCCCN)NC(=O)[C@H](CCCCN)NC(=O)[C@H](CCSC)NC(=O)[C@H](CCCNC(=N)N)NC(=O)[C@H](Cc2c[nH]c3ccccc23)NC(=O)[C@H](CCC(N)=O)NC(=O)[C@H](Cc2c[nH]c3ccccc23)NC(=O)[C@H](CCCNC(=N)N)NC(=O)[C@H](CCCNC(=N)N)NC(=O)[C@@H](NC(=O)[C@H](CCCCN)NC(=O)[C@@H](N)Cc2ccccc2)CSSC[C@@H](C(=O)N[C@H](C(=O)N[C@@H](CCCNC(=N)N)C(=O)N[C@@H](CCCNC(=N)N)C(=O)N[C@@H](C)C(=O)N[C@@H](Cc2ccccc2)C(=O)O)C(C)C)NC(=O)[C@H]([C@@H](C)O)NC1=O [antimicrobial peptide of Example 1] | less than 45 μg/ml | less than 45 μg/ml | – | – | – | – | –
2 | I: VSQPEATKCFQWQRNMRKVRGPPVSCIKRDSPIQCI / II: GRRRRSVQWCA (disulfide I:9-I:26, I:35-II:10) [antimicrobial peptide of Example 3] | – | – | 3% | 86% | 100% | 100% | 100%

Source: patent US5304633A, “Fragments of lactoferrin having potent antimicrobial activity” (priority 1990, dated 1994)
